According to PMC6212493, “Development and evaluation of a novel series of Nitroxoline-derived BET inhibitors with antitumor activity in renal cell carcinoma” (Oncogenesis, 2018):
“Also recorded” adds a separate entry of the source.

Columns and labels:
[1] = system: c-Myc, Bcl-2, and CDK6 mRNA expression; test: Real-time PCR of BET downstream genes in RCC cells; assay type: cell-based; details: relative to DMSO control, normalized to β2-microglobulin
Method: Trizol reagent (Vazyme) was used to extract total RNA of ccRCC tumor samples or cells following manufacturer’s instructions. Synthesis of complementary DNA (cDNA) was done using the HiScript® II RT SuperMix (Vazyme). StepOnePlus (Life Technologies) apparatus was applied to carry out quantitative real-time PCR (qPCR). Gene-specific data were normalized to β2-microglobulin and are calculated as relative expression compared to DMSO or control group using the ΔΔCT method.

[2] = system: 786-O xenograft tumor; test: RCC xenograft mice model (786-O); assay type: in vivo, nude mice; details: 50 mg/kg intraperitoneally daily
Method: All animal experiments were approved by IACUC (Institutional Animal Care and Use Committee) of Shanghai Institute of Materia Medica. Four to six-week-old female nude mice purchased from Silaike Laboratory Animal Ltd. were subcutaneously inoculated with 5 × 10^6 786-O cells in 100 μL PBS. All nude mice were raised under pathogen-free conditions to achieve tumor growth. Sample size of each group (n = 7) was chosen following the instruction by http://www.biomath.info. As long as the tumor sizes reached palpable stage, the mice were randomly divided into two groups (n = 7/group). One group is for compound BDF-1253 treatment trials and the other group is the control group. […] These mice were treated intraperitoneally with either diluted compound BDF-1253 of 50 mg/kg or vehicle on a daily basis. Tumor volume was evaluated every 3 days using Vernier calipers and calculated with the equation: length × width^2 × 0.5. Animals were killed when their tumors reached 2 cm^3.

[3] = system: ACHN cells; test: Alamar Blue viability assay, ACHN; assay type: cell-based; details: Homo sapiens, 168 h, treatment for 7 days, read-out: IC50, cell viability
Method: (§1) RCC cells 786-O, 769-P, A498, and ACHN were purchased from ATCC. All the cells were authenticated by STR profiling at Genesky Biopharma Technology and tested for Mycoplasma contamination. […] For the viability assay, cells were plated on 96-well plates at the density of 0.5–1 × 10^3/well. After cell attachment, various concentrations of compounds and DMSO were added, the plates were incubated for 7 days. After the addition of 10 μL Alamar Blue and incubation for 3 h at 37 °C, fluorescent signals were measured with a PE Envision reader, at the wavelength of 544 nm for excitation and 590 nm for emission. Finally, the percentages of viability were calculated by normalizing against the control.

[4] = system: c-Myc, Bcl-2, Bax, cleaved-PARP, cleaved-Caspase3 protein abundance; test: Western blot of BET downstream and apoptosis proteins in RCC cells; assay type: cell-based; details: immunoblot
Method: Protein lysates from tissue samples were obtained using RIPA buffer supplemented with protease and phosphatase inhibitors. For the cellular samples, cells were collected following treatment with DMSO and compounds. Western blot was performed as previously described.[25] The primary antibodies were BRD2 (A302-583A, Bethyl), BRD3 (A302-368A, Bethyl), BRD4 (A301-985A, Bethyl), MYC (sc-40, Santa Cruz Biotechnology), BCL2 (ab7973, Abcam), BAX (ab32503, Abcam), cleaved PARP (Cell Signaling, #5625). The secondary antibodies were anti-rabbit IgG (Jackson, 111-035-003) or anti-mouse IgG (Jackson). HRP substrate (GE Healthcare) was used for the detection of chemical luminescence, and FUJIFILM LAS-4000 was used for image acquisition.

[5] = target: BRD4-BD2 (Homo sapiens, UniProt O60885); test: ALPHA assay, displacement of BRD4-BD2 from acetylated H4 peptide; assay type: binding
Method: (§2) First, we compared the inhibitory activity of BDF-1253 to displace BRD4-BD1 or BRD4-BD2 domain from acetylated H4 peptide using ALPHA assay. […] An in vitro selective assay was also conducted to examine the effect of BDF-1253 at 3 μM on the other BET proteins, other BRD proteins out of BET family (SMACAR, BPTF, PCAF) as well as several epigenetic enzymes.
(§3) Amplified Luminescent Proximity Homogeneous Assay (ALPHA) screen assay was used to determine the IC50 of compounds for competitive displacement of BRD4_BD1 from the acetylated H4 peptide. As previously described, 2.5 μL compounds and 2.5 μL proteins were added into each well of 384-well plates and incubated at room temperature for 15 min. To start the reaction, 5 μL substrate peptide was added and incubated at room temperature for 5 min. Subsequently, 5 µL nickel-chelate acceptor beads (PerkinElmer) and 5 µL streptavidin-conjugate donor beads (PerkinElmer) were added. After 60 min incubation at room temperature, data were collected by EnVision (PerkinElmer) and analyzed using GraphPad Prism 5.0.
IC50 determination of BDF-1253 against BRD4-BD1 and BRD4-BD2 using Alpha Screen method.

[6] = system: HUVEC normal cell line; test: Viability of normal cells, HUVEC; assay type: cell-based; details: at similar concentrations as RCC cells
[7] = system: RCTEC normal cell line; test: Viability of normal cells, RCTEC; assay type: cell-based; details: at similar concentrations as RCC cells
Method: as §1

[8] = system: 786-O cells; test: Alamar Blue viability assay, 786-O; assay type: cell-based
Method: as §1

[9] = system: BET family proteins; test: In vitro selective assay at 3 μM, BET proteins; assay type: binding
Method: as §2
(§4) Determination of inhibition against BET family members, bromodomain proteins out of the BET family as well as several epi-enzymes by BDF-1253 at 3 μM.

[10] = system: Caki cells; test: Alamar Blue viability assay, Caki; assay type: cell-based; details: 168 h, treatment for 7 days, read-out: IC50, cell viability
[11] = system: non-BET BRD-containing proteins (SMACAR, BPTF, PCAF) and epigenetic enzymes; test: In vitro selective assay at 3 μM, non-BET bromodomain proteins and epi-enzymes; assay type: biochemical
Method: as §2, §4

[12] = system: A498 cells; test: Alamar Blue viability assay, A498; assay type: cell-based; details: Homo sapiens, 168 h; A498, treatment for 7 days; read-out: IC50, cell viability
Method: as §1

[13] = target: T1, BRD4-BD1 (Homo sapiens, UniProt O60885); test: ALPHA screen assay, displacement of BRD4-BD1 from acetylated H4 peptide; assay type: binding
T1 construct: with the first bromodomain of BRD4 (BRD4-BD1) were solved; 6xHis (N); made in house; host or cells: Escherichia coli BL21 (DE3)
Method: as §3

Row | Structure (SMILES) | mRNA expression levels of c-Myc, Bcl-2, and CDK6 (BET target gene transcription) [1] | c-Myc expression in tumors (immunoblotting) [2] | tumor size ([2]; 21 days, 786-O xenograft) | body weight / toxicity ([2]; during dosing) | IC50 [3] | PRAP and Caspase3 cleavage and expression of pro-apoptotic protein Bax [4] | protein abundance of c-Myc, Bcl-2 (BRD4 downstream effectors) [4] | selectivity for BRD4-BD1 or BRD4-BD2 domain [5] | inhibition of normal cell viability [6] | inhibition of normal cell viability [7] | IC50 ([8]; Homo sapiens, 786-0, 168 h, 786-O, treatment for 7 days, read-out: IC50, cell viability) | effect on RCC cell proliferation ([8]; RCC 786-o cells, in words) | effect on BET family proteins [9] | IC50 [10] | effect on non-BET BRD-containing proteins or other epigenetic enzymes [11] | IC50 [12] | IC50 [13]
1 | CC(=O)Nc1cc(Cn2ccnc2)c2cccc(O)c2n1 [BDF-1253] | inhibited expression; also recorded: dose-dependently decreased | reduced | remarkable reduction in tumor size | no obvious loss of body weight or toxicity | 2070 nM | increased PRAP and Caspase3 cleavage and elevated expression of pro-apoptotic protein Bax | reduced after the treatment, in a dose-dependent manner | no obvious selectivity | little inhibition | little inhibition | 1510 nM | inhibited the proliferation | selectively inhibited BET family proteins | 3570 nM | minimal effects | 1390 nM | 287 nM
2 | O=[N+]([O-])c1ccc(O)c2ncccc12 [Nitroxoline] | – | – | – | – | – | – | – | – | – | – | – | – | – | – | – | – | 980 nM
